Data taken from patent publication US20260158009A1 (GENZYME CORPORATION, priority 2023, published 2026).

How the values were obtained:
U937 cells = test: Cellular assay in U937 cells: activity of RIPK1 inhibitors on TNFα/zVAD.fmk-induced cell death (necroptosis), CellTiter 96 AQueous (MTS) readout; format: cell-based; details: Homo sapiens, U-937
Outline: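 Necroptosis was measured by viable-cell MTS reduction (4 h, absorbance 490 nm) after overnight (18–24 h) 37° C culture. Cell suspensions of U937 cells carried TNFα (100 ng/ml) plus zVAD.fmk (50 μM) before compound was added. A 10-point curve (10 μM–0.26 nM or 1 μM–0.07 nM) was run in duplicate, normalised to the control lacking TNFα/zVAD.fmk.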

[1] = target: T1, hRIPK1 (aa 1-375) fusion protein (Homo sapiens, UniProt Q13546); test: ADP-Glo kinase assay: catalytic activity of RIPK1 (autophosphorylation, conversion of ATP to ADP); format: biochemical
T1 construct: hRIPK1 (aa 1-375) fusion protein
T1 sequence (Q13546 1-375): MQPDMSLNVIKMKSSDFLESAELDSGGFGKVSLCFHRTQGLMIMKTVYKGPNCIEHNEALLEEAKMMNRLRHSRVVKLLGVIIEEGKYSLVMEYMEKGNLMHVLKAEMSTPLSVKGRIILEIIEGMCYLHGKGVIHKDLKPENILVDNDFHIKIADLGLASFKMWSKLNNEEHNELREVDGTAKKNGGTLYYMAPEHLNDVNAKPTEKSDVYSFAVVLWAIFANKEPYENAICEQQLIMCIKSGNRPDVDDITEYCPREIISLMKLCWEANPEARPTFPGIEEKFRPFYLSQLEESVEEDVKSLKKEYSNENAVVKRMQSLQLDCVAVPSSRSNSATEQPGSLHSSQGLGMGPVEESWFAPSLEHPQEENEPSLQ
Outline: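 The readout was ADP-Glo luminescence after a 240 min rt autophosphorylation reaction with 50 μM ATP, following 30 min preincubation of 3.6 μg/ml hRIPK1 (aa 1-375) fusion with compound at 33300-1.69 nM final in 1% DMSO. Values came from Levenberg-Marquardt nonlinear fits.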

Row | Compound | IC50 [1] [nM] | IC50 (U937 cells) [nM]
1 | Cc1nc2c(C)cc(C[C@H]3CC[C@H](C(=O)N4OCC[C@H]4c4cnc(C)c(F)c4)CC3)cn2n1 [compound 330, trans-[4-[(2,8-dimethyl-[1,2,4]triazolo[1,5-a]pyridin-6-yl)methyl]cyclohexyl]-[(3S)-3-(5-fluoro-6-methylpyridin-3-yl)-1,2-oxazolidin-2-yl]methanone] | 20 | 18
2 | Cn1cc(C[C@H]2CC[C@H](C(=O)N3OCC[C@H]3c3cc(F)cc(C#N)c3)CC2)nn1 [Compound 258, trans-3-fluoro-5-[(3S)-2-[4-[(1-methyltriazol-4-yl)methyl]cyclohexanecarbonyl]isoxazolidin-3-yl]benzonitrile] | 71 | 862
3 | Cc1nccn1-c1cc(F)cc(C[C@H]2CC[C@H](C(=O)N3OCC[C@H]3c3cncc(F)c3)CC2)c1 [compound 220, trans-[4-[[3-fluoro-5-(2-methylimidazol-1-yl)phenyl]methyl]cyclohexyl]-[(3S)-3-(5-fluoro-3-pyridyl)isoxazolidin-2-yl]methanone] | 26 | 12
4 | N#Cc1cc(F)cc([C@@H]2CCON2C(=O)[C@H]2CC[C@H](Cn3ccc4ncc(C#N)cc43)CC2)c1 [compound 2, trans-1-((4-((S)-3-(3-cyano-5-fluorophenyl)isoxazolidine-2-carbonyl)cyclohexyl)methyl)-1H-pyrrolo[3,2-b]pyridine-6-carbonitrile] | 33 | 9
5 | Cc1nc([C@@H]2CCON2C(=O)[C@H]2CC[C@H](Cc3cc(C)c4ncnn4c3)CC2)cs1 [compound 362, trans-[(S)-3-(2-Methyl-thiazol-4-yl)-isoxazolidin-2-yl]-[4-(8-methyl-[1,2,4]triazolo[1,5-a]pyridin-6-ylmethyl)-cyclohexyl]-methanone] | 59 | 52
6 | N#Cc1cc(F)cc([C@@H]2CCON2C(=O)[C@H]2CC[C@H](Cn3ncc4ncc(C#N)cc43)CC2)c1 [compound 27, trans-1-((4-((S)-3-(3-cyano-5-fluorophenyl)isoxazolidine-2-carbonyl)cyclohexyl)methyl)-1H-pyrazolo[4,3-b]pyridine-6-carbonitrile] | 6 | 2
7 | N#Cc1cc(F)cc([C@@H]2CCON2C(=O)[C@H]2CC[C@H](Cn3ncc4cc(F)ccc43)CC2)c1 [compound 54, trans-3-fluoro-5-((S)-2-(4-((5-fluoro-1H-indazol-1-yl)methyl)cyclohexane-1-carbonyl)isoxazolidin-3-yl)benzonitrile] | 21 | 6
8 | Cn1cc(C[C@H]2CC[C@H](C(=O)N3OCC[C@H]3c3cc(F)cc(F)c3)CC2)cn1 [compound 236, trans-[(3S)-3-(3,5-difluorophenyl)isoxazolidin-2-yl]-[4-[(1-methylpyrazol-4-yl)methyl]cyclohexyl]methanone] | 20 | 4
9 | Cc1cn(C[C@H]2CC[C@H](C(=O)N3OCC[C@H]3c3cc(F)cc(C#N)c3)CC2)c2cc(C(N)=O)ccc12 [compound 110, trans-1-((4-((S)-3-(3-cyano-5-fluorophenyl)isoxazolidine-2-carbonyl)cyclohexyl)methyl)-3-methyl-1H-indole-6-carboxamide] | 22 | 11
10 | Cc1cnc([C@@H]2CCON2C(=O)[C@H]2CC[C@H](Cc3cc(C)c4ncnn4c3)CC2)cn1 [compound 409, trans-[(3S)-3-(5-methylpyrazin-2-yl)-1,2-oxazolidin-2-yl]-[4-[(8-methyl-[1,2,4]triazolo[1,5-a]pyridin-6-yl)methyl]cyclohexyl]methanone] | 46 | 66
11 | Cc1c(C#N)ncn1C[C@H]1CC[C@H](C(=O)N2OCC[C@H]2c2cc(F)cc(F)c2)CC1 [compound 91, trans-1-((4-((S)-3-(3,5-difluorophenyl)isoxazolidine-2-carbonyl)cyclohexyl)methyl)-5-methyl-1H-imidazole-4-carbonitrile] | 39 | 67

The remaining compounds from weak to strong by IC50 [1], led by results:

Row | IC50 [1] [nM] | Compound | IC50 (U937 cells) [nM]
12 | 2000 | Cc1nc2c(C)cc(C[C@H]3CC[C@@](C)(C(=O)N4OCC[C@H]4c4cnc(C)c(F)c4)CC3)cn2n1 [compound 402] | 1130
13 | 995 | Cc1ccc([C@@H]2CCON2C(=O)[C@H]2CC[C@H](Cc3ccc(C)nn3)CC2)cn1 [compound 387, trans-[4-[(6-methylpyridazin-3-yl)methyl]cyclohexyl]-[(3S)-3-(6-methylpyridin-3-yl)-1,2-oxazolidin-2-yl]methanone] | 1880
14 | 68 | N#Cc1cnc2cn(C[C@H]3CC[C@H](C(=O)N4OCC[C@H]4c4cc(F)cc(F)c4)CC3)nc2c1 [compound 25, trans-2-((4-((S)-3-(3,5-difluorophenyl)isoxazolidine-2-carbonyl)cyclohexyl)methyl)-2H-pyrazolo[4,3-b]pyridine-6-carbonitrile] | 154
15 | 44 | N#Cc1cc(F)cc([C@@H]2CCON2C(=O)[C@H]2CC[C@H](Cn3cnc4cc(F)c(C(N)=O)cc43)CC2)c1 [compound 70, trans-1-((4-((S)-3-(3-cyano-5-fluorophenyl)isoxazolidine-2-carbonyl)cyclohexyl)methyl)-5-fluoro-1H-benzo[d]imidazole-6-carboxamide] | 403
16 | 33 | Cc1cc(C[C@H]2CC[C@H](C(=O)N3OCC[C@H]3c3cnccn3)CC2)cn2c(C)nnc12 [compound 301, trans-[4-[(3,8-dimethyl-[1,2,4]triazolo[4,3-a]pyridin-6-yl)methyl]cyclohexyl]-[(3S)-3-pyrazin-2-yl-1,2-oxazolidin-2-yl]methanone] | 34
17 | 26 | CC1(Oc2cnc3ccn(C[C@H]4CC[C@H](C(=O)N5OCC[C@H]5c5cc(F)cc(C#N)c5)CC4)c3c2)CC1 [compound 184, trans-3-fluoro-5-[(3S)-2-[4-[[6-(1-methylcyclopropoxy)pyrrolo[3,2-b]pyridin-1-yl]methyl]cyclohexanecarbonyl]isoxazolidin-3-yl]benzonitrile] | 19
18 | 22 | Cc1ncc(F)cc1C[C@H]1CC[C@H](C(=O)N2OCC[C@H]2c2cc(F)cc(F)c2)CC1 [compound 182, trans-[(3S)-3-(3,5-difluorophenyl)isoxazolidin-2-yl]-[4-[(5-fluoro-2-methyl-3-pyridyl)methyl]cyclohexyl]methanone] | 1
19 | 22 | COc1cnc2ccn(C[C@H]3CC[C@H](C(=O)N4OCC[C@H]4c4cc(F)cc(C#N)c4)CC3)c2c1 [compound 128, trans-3-fluoro-5-[(3S)-2-[4-[(6-methoxypyrrolo[3,2-b]pyridin-1-yl)methyl]cyclohexanecarbonyl]isoxazolidin-3-yl]benzonitrile] | 4
20 | 20 | Cc1ccc(CC23CCC(C(=O)N4OCC[C@H]4c4cc(F)cc(C#N)c4)(CC2)C3)cc1C(N)=O [compound 270, 5-[[4-[(3S)-3-(3-cyano-5-fluoro-phenyl)isoxazolidine-2-carbonyl]norbornan-1-yl]methyl]-2-methyl-benzamide] | 50
21 | 20 | Cc1nc([C@@H]2CCON2C(=O)[C@H]2CC[C@H](Cn3ccc4cc(C(N)=O)ccc43)CC2)cs1 [compound 254, trans-1-[[4-[(3S)-3-(2-methylthiazol-4-yl)isoxazolidine-2-carbonyl]cyclohexyl]methyl]indole-5-carboxamide] | 96
22 | 19 | N#Cc1cc(F)cc([C@@H]2CCON2C(=O)[C@H]2CC[C@H](Cn3c(=O)oc4ccccc43)CC2)c1 [compound 18, trans-3-fluoro-5-((S)-2-(4-((2-oxobenzo[d]oxazol-3(2H)-yl)methyl)cyclohexane-1-carbonyl)isoxazolidin-3-yl)benzonitrile] | 16
23 | 18 | Cc1cc(C[C@H]2CC[C@H](C(=O)N3OCC[C@H]3c3cc(F)cc(C#N)c3)CC2)cn2ncnc12 [compound 249, trans-3-fluoro-5-[(3S)-2-[4-[(8-methyl-[1,2,4]triazolo[1,5-a]pyridin-6-yl)methyl]cyclohexanecarbonyl]-1,2-oxazolidin-3-yl]benzonitrile] | 5
24 | 14 | Cc1cn2nc(C[C@H]3CC[C@H](C(=O)N4OCC[C@H]4c4cc(F)cc(F)c4)CC3)c(C)cc2n1 [compound 293, trans-[(3S)-3-(3,5-difluorophenyl)isoxazolidin-2-yl]-[4-[(2,7-dimethylimidazo[1,2-b]pyridazin-6-yl)methyl]cyclohexyl]methanone] | 3
25 | 11 | Cc1nc2c(F)cc(C[C@H]3CC[C@H](C(=O)N4OCC[C@H]4c4cc(F)cc(F)c4)CC3)cn2n1 [compound 285, trans-[(3S)-3-(3,5-difluorophenyl)isoxazolidin-2-yl]-[4-[(8-fluoro-2-methyl-[1,2,4]triazolo[1,5-a]pyridin-6-yl)methyl]cyclohexyl]methanone] | 10
